From patent publication US20130116263A1, “PAK INHIBITORS FOR THE TREATMENT OF CELL PROLIFERATIVE DISORDERS” (AFRAXIS, INC., priority 2011, published 2013) come the findings set out here.

Common to all, as to assay type: biochemical
For experiment [1], the target named is T1, PAK1 (Homo sapiens, UniProt Q13153). In words: Additional in vitro PAK1 inhibition assay at ATP 10 uM and 1 mM. The method, then: (§1) Similar in vitro PAK1 and PAK-4 inhibition assays are conducted in compounds for the treatment of cancer, but under ATP concentrations of 10 uM and 1 mM.
T1 sequence (Q13153 whole entry): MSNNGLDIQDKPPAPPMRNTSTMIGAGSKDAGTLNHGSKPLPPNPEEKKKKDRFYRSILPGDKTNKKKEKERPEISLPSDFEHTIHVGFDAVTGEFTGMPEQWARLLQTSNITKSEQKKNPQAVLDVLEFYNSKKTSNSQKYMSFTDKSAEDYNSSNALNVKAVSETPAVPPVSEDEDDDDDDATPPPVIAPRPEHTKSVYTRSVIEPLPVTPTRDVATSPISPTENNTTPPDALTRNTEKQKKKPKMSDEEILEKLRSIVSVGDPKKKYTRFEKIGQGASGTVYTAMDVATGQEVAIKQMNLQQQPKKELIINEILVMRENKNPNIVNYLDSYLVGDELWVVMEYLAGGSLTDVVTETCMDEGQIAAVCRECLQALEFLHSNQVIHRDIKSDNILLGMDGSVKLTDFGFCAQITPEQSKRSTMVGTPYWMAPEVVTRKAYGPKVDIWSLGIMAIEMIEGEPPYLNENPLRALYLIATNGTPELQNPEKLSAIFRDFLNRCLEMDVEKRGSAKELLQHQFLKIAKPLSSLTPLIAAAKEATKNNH
For experiment [2], the target named is T2, PAK4 (Homo sapiens, UniProt O96013). In words: Additional in vitro PAK-4 inhibition assay at ATP 10 uM and 1 mM. Particulars: 10 μM ATP; read-out: PAK4 IC50 (10 μM ATP). The method, then:
as §1

Experiment [3] has as its target T1, PAK1. The experiment in a line: In vitro PAK inhibition assay (Z'-LYTE, SelectScreen), PAK1. Particulars: read-out: PAK1 IC50. A digest of the protocol:
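FRET-based Z'-LYTE readout: PAK1 phosphorylates Ser/Thr 19 peptide in 50 mM HEPES pH 7.5, 0.01% BRIJ-35, 10 mM MgCl2, 1 mM EGTA, 1% DMSO, 60 min at room temperature, followed by 60 min development.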

Another experiment deals with PAK2 (PAK65) (Homo sapiens, UniProt Q13177). In words: In vitro PAK inhibition assay (Z'-LYTE, SelectScreen), PAK2. Particulars: read-out: PAK2 IC50. The essentials: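 Z'-LYTE FRET readout using Ser/Thr 20 peptide (2 μM) with 0.29–6 ng PAK2 in 50 mM HEPES pH 7.5, 0.01% BRIJ-35, 10 mM MgCl2, 1 mM EGTA, 1% DMSO. Reaction and development each ran 60 min at room temperature.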
Sequence of PAK2 (PAK65) (Q13177 whole entry): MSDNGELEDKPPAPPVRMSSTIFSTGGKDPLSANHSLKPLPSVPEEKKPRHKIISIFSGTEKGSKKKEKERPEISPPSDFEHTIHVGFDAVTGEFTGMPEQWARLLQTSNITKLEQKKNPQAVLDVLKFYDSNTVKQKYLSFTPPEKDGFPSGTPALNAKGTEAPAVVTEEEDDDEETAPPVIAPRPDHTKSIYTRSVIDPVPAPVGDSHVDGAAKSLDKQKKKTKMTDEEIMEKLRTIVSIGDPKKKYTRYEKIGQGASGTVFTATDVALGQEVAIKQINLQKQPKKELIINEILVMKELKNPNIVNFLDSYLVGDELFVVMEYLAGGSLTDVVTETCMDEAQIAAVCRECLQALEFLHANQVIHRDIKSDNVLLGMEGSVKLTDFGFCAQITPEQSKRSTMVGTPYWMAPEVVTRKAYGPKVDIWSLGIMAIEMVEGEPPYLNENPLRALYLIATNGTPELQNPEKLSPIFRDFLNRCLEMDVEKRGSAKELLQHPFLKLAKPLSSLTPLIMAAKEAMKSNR

The target of the next experiment is PAK3 (Homo sapiens, UniProt O75914). In words: In vitro PAK inhibition assay (Z'-LYTE, SelectScreen), PAK3. Particulars: read-out: PAK3 IC50. A digest of the protocol: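 Z'-LYTE FRET format: PAK3 with Ser/Thr 20 peptide in 50 mM HEPES pH 7.5, 0.01% BRIJ-35, 10 mM MgCl2, 1 mM EGTA, 1% DMSO final. Kinase reaction 60 min at room temperature, then 60 min development and fluorescence read.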
Sequence of PAK3 (O75914 1-544 isoform O75914-2): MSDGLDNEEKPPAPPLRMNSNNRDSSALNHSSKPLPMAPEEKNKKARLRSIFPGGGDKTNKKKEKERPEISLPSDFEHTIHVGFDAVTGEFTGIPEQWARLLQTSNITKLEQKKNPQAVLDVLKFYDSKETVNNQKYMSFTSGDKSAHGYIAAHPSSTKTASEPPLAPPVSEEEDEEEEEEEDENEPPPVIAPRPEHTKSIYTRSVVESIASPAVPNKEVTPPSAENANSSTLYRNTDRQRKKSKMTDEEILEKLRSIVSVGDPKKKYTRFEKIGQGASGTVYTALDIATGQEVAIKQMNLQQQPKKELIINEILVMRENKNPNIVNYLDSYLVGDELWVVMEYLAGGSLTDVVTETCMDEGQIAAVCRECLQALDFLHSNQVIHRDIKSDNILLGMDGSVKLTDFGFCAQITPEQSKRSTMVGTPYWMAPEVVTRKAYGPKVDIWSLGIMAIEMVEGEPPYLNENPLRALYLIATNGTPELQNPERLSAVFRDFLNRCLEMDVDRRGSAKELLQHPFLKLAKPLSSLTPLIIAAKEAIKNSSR

The target of experiment [4] is T2, PAK4. In words: In vitro PAK inhibition assay (Z'-LYTE, SelectScreen), PAK4. A digest of the protocol: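 Z'-LYTE FRET assay with 0.1-0.75 ng PAK-4 and 2 μM Ser/Thr 20 peptide in 50 mM HEPES pH 7.5, 10 mM MgCl2, 1 mM EGTA, 0.01% BRIJ-35, 1% DMSO; ATP near apparent Km. 1 h kinase reaction at room temperature, then 1 h development; IC50 from 10-point 3-fold titrations fitted to a sigmoidal dose-response.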

[5] abbreviates: 10 μM ATP, read-out: PAK1 IC50 (10 μM ATP).
Setting [6] is: 1 mM ATP, read-out: PAK1 IC50 (1 mM ATP).

SMILES strings stand for the structures.

T2 sequence (O96013 whole entry): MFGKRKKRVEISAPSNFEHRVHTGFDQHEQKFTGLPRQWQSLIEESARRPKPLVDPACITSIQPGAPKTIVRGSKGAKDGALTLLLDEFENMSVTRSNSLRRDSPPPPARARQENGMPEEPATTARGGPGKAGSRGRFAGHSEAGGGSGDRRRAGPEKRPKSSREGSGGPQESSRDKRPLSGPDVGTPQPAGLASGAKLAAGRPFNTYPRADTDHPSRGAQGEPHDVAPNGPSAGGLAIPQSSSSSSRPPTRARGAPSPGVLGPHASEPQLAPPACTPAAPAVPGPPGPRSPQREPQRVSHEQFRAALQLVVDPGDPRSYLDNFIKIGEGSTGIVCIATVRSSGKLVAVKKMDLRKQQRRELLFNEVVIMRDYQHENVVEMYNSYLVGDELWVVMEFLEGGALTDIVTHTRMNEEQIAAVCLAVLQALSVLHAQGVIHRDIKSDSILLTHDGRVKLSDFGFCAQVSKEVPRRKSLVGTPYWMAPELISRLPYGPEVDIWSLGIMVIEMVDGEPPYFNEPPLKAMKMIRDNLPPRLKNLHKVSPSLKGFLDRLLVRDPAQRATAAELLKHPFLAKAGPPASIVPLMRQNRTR

For the molecule `Cc1nc(-c2ccc(-c3cc4cnc(NC5CCOCC5)nc4n(CC(=O)NC4CCCNC4)c3=O)c(Cl)c2)no1` (stereo not drawn), the results for the IC50 at PAK1 [1] (setting [5]), at PAK1 [1] (setting [6]) and on PAK4 [2] were 50 to 500 nM, at least 5000 nM and at least 5000 nM, respectively.

`CCn1c(=O)c(-c2ccc(-c3noc(C)n3)cc2Cl)cc2cnc(NC3CCNC3=O)nc21` (stereo not drawn): the IC50 on PAK1 [1] (setting [5]), on PAK1 [1] (setting [6]) and on PAK4 [2] was at least 5000 nM in each case.

`Cc1nc(-c2ccc(-c3cc4cnc(NC5CCOCC5)nc4n(C4CCOCC4)c3=O)c(Cl)c2)no1`: the IC50 is 50 to 500 nM at PAK1 [1] (setting [5]), at least 5000 nM at PAK1 [1] (setting [6]) and at least 5000 nM on PAK4 [2].

As to `CCn1c(=O)c(-c2ccc(-c3noc(C)n3)cc2Cl)cc2cnc(NCCC3CCNCC3)nc21` [Example 137], the IC50 was 50 to 500 nM on PAK1 [3], below 50 nM at PAK2 (PAK65), 50 to 500 nM on PAK3 and above 5000 nM on PAK4 [4].

As for `Cc1cncc(-c2ccc(-c3cc4cnc(N[C@H]5CCOC5)nc4n(CCN)c3=O)c(Cl)c2)n1` [Example 100], the IC50 at PAK1 [3] was 50 to 500 nM; at PAK2 (PAK65), below 50 nM; on PAK3, 50 to 500 nM; at PAK4 [4], above 5000 nM.

For the molecule `Cc1cncc(-c2ccc(-c3cc4cnc(N[C@H]5CCOC5)nc4n(C4CCN(C)CC4)c3=O)c(Cl)c2)n1` [Example 108], the IC50 at PAK1 [3] is 50 to 500 nM; at PAK2 (PAK65), 50 to 500 nM; on PAK3, 50 to 500 nM; against PAK4 [4], above 5000 nM.

For `CCn1c(=O)c(-c2ccc(-c3cccnc3C)cc2Cl)cc2cnc(N[C@@H]3CCOC3)nc21` [Example 59], the IC50 on PAK1 [3] was 500 to 5000 nM; on PAK2 (PAK65), 500 to 5000 nM; at PAK3 it was 500 to 5000 nM; against PAK4 [4], above 5000 nM.

In the case of `CCn1c(=O)c(-c2ccc(-c3cncc(C)n3)cc2Cl)cc2cnc(NC3C[C@@H](C)O[C@@H](C)C3)nc21` (stereo partly drawn) [Example 37], the IC50 at PAK1 [3] is below 50 nM; at PAK2 (PAK65), 50 to 500 nM; on PAK3 it was 50 to 500 nM; against PAK4 [4], above 5000 nM.

Consider `COCCCn1c(=O)c(-c2ccc(-c3cncc(C)n3)cc2Cl)cc2cnc(N[C@@H]3CCOC3)nc21` [Example 64], for which the IC50 on PAK1 [3] is below 50 nM; on PAK2 (PAK65), below 50 nM; on PAK3 it was 50 to 500 nM; at PAK4 [4], above 5000 nM.

`CCn1c(=O)c(-c2ccc(-c3cncc(C)n3)cc2Cl)cc2cnc(NCCOCCN(C)C)nc21` [Example 127, 6-(2-chloro-4-(6-methylpyrazin-2-yl)phenyl)-2-((2-(2-(dimethylamino)ethoxy)ethyl)amino)-8-ethylpyrido[2,3-d]pyrimidin-7(8H)-one]: the IC50 on PAK1 [3] is 50 to 500 nM; at PAK2 (PAK65), 50 to 500 nM; at PAK3 it was 50 to 500 nM; at PAK4 [4] it was above 5000 nM.

Take `CCn1c(=O)c(-c2ccc(-c3nccnc3C)cc2Cl)cc2cnc(N[C@H]3CC[C@H](N)CC3)nc21` [Example 90, 2-(((trans-1,4)-4-aminocyclohexyl)amino)-6-(2-chloro-4-(3-methylpyrazin-2-yl)phenyl)-8-ethylpyrido[2,3-d]pyrimidin-7(8H)-one]: the IC50 is 50 to 500 nM on PAK1 [3], below 50 nM on PAK2 (PAK65), 50 to 500 nM at PAK3 and above 5000 nM on PAK4 [4].

`Cc1nccnc1-c1ccc(-c2cc3cnc(N[C@H]4CCOC4)nc3n(Cc3ccccn3)c2=O)c(Cl)c1` [Example 125]: the IC50 on PAK1 [3] was below 50 nM; at PAK2 (PAK65), below 50 nM; on PAK3, 50 to 500 nM; on PAK4 [4], above 5000 nM.

In the case of `CCn1c(=O)c(-c2ccc(-c3nccnc3C)cc2Cl)cc2cnc(NC3CCOCC3)nc21` [Example 2], the IC50 is 50 to 500 nM on PAK1 [3], 50 to 500 nM on PAK2 (PAK65), 50 to 500 nM on PAK3 and above 5000 nM against PAK4 [4].

For `CCn1c(=O)c(-c2ccc(-c3cncc(C)n3)cc2Cl)cc2cnc(NC3CCOC3)nc21` (stereo not drawn) [Example 29], the IC50 on PAK1 [3] was 50 to 500 nM; at PAK2 (PAK65), below 50 nM; at PAK3, 50 to 500 nM; against PAK4 [4] it was above 5000 nM.

With `CCn1c(=O)c(-c2cc(C)c(-c3cncc(C)n3)cc2Cl)cc2cnc(N[C@H]3CCOC3)nc21` [Example 72], the IC50 was below 50 nM on PAK1 [3], below 50 nM at PAK2 (PAK65), 50 to 500 nM on PAK3 and above 5000 nM against PAK4 [4].

With `CCn1c(=O)c(-c2ccc(-c3cncc(C)n3)cc2Cl)cc2cnc(NCCCOCCCN)nc21` [Example 129], the IC50 on PAK1 [3] was below 50 nM; on PAK2 (PAK65) it was below 50 nM; on PAK3, 50 to 500 nM; against PAK4 [4], above 5000 nM.

With `Cc1cncc(-c2ccc(-c3cc4cnc(NCC(C)C)nc4n([C@H]4CC[C@H](N)CC4)c3=O)c(Cl)c2)n1` [Example 115], the IC50 at PAK1 [3] is below 50 nM; on PAK2 (PAK65), below 50 nM; on PAK3, below 50 nM; at PAK4 [4] it was 500 to 5000 nM.

In the case of `CCn1c(=O)c(-c2ccc(-c3cncc(C)n3)cc2Cl)cc2cnc(N[C@@H]3CCOC3)nc21` [Example 28], the IC50 was below 50 nM at PAK1 [3], below 50 nM on PAK2 (PAK65), 50 to 500 nM on PAK3 and above 5000 nM against PAK4 [4].

Consider `Cc1nc(-c2ccc(-c3cc4cnc(NC5CCOCC5)nc4[nH]c3=O)c(Cl)c2)no1` [Example 11], for which the IC50 on PAK1 [3] is 50 to 500 nM; at PAK2 (PAK65), 50 to 500 nM; on PAK3 it was 50 to 500 nM; on PAK4 [4], above 5000 nM.

Consider `CCn1c(=O)c(-c2ccc(-c3ccncc3)cc2Cl)cc2cnc(NC3CCOCC3)nc21` [Example 43], for which the IC50 at PAK1 [3] was 500 to 5000 nM; on PAK2 (PAK65), 500 to 5000 nM; at PAK3, above 5000 nM; at PAK4 [4] it was above 5000 nM.

For `CCn1c(=O)c(-c2ccc(-c3cccnc3F)cc2Cl)cc2cnc(NC3CCOC3)nc21` (stereo not drawn) [Example 39], the IC50 at PAK1 [3] is 50 to 500 nM; at PAK2 (PAK65), 50 to 500 nM; on PAK3, 50 to 500 nM; at PAK4 [4], above 5000 nM.

Turning to `CCn1c(=O)c(-c2ccc(-c3nccnc3C)cc2Cl)cc2cnc(NC3CCCCC3)nc21` [Example 3], the IC50 on PAK1 [3] was above 5000 nM; at PAK2 (PAK65), 500 to 5000 nM; on PAK3, above 5000 nM; against PAK4 [4] it was above 5000 nM.

For `CCn1c(=O)c(-c2ccc(-c3cncc(C)n3)cc2Cl)cc2cnc(NCCOCCN)nc21` [Example 128], the IC50 was 50 to 500 nM on PAK1 [3], 50 to 500 nM on PAK2 (PAK65), 50 to 500 nM on PAK3 and above 5000 nM against PAK4 [4].

As to `CCn1c(=O)c(-c2ccc(-c3nccnc3C)cc2C)cc2cnc(NC3CCOCC3)nc21` [Example 1, 8-ethyl-6-(2-methyl-4-(3-methylpyrazin-2-yl)phenyl)-2-(tetrahydro-2H-pyran-4-ylamino)pyrido[2,3-d]pyrimidin-7(8H)-one], the IC50 was 50 to 500 nM on PAK1 [3], 50 to 500 nM on PAK2 (PAK65), 50 to 500 nM on PAK3 and above 5000 nM against PAK4 [4].

Regarding `CCn1c(=O)c(-c2ccc(-c3ccnc(C)n3)cc2Cl)cc2cnc(NC3CCOCC3)nc21` [Example 8], the IC50 is 50 to 500 nM on PAK1 [3], 50 to 500 nM on PAK2 (PAK65), 50 to 500 nM on PAK3 and above 5000 nM at PAK4 [4].

For the molecule `Cc1cncc(-c2ccc(-c3cc4cnc(NC5CCOCC5)nc4n(Cc4ccccc4)c3=O)c(Cl)c2)n1` [Example 34], the IC50 on PAK1 [3] is 50 to 500 nM; on PAK2 (PAK65) it was below 50 nM; at PAK3, 50 to 500 nM; against PAK4 [4] it was above 5000 nM.

As for `CCn1c(=O)c(-c2ccc(-c3cncc(C)n3)cc2Cl)cc2cnc(N[C@H]3CC[C@H](CN(C)C)CC3)nc21` [Example 84, 6-(2-chloro-4-(6-methylpyrazin-2-yl)phenyl)-2-((trans-1,4)-4-((dimethylamino)methyl)cyclohexylamino)-8-ethylpyrido[2,3-d]pyrimidin-7(8H)-one], the IC50 on PAK1 [3] is below 50 nM; at PAK2 (PAK65), below 50 nM; at PAK3 it was below 50 nM; on PAK4 [4], above 5000 nM.

With `CCn1c(=O)c(-c2ccc(-c3cccnc3OC)cc2Cl)cc2cnc(NC3CCOCC3)nc21` [Example 52], the IC50 at PAK1 [3] was 500 to 5000 nM; at PAK2 (PAK65) it was above 5000 nM; at PAK3 it was above 5000 nM; on PAK4 [4], above 5000 nM.

On to `CCn1c(=O)c(-c2ccc(-c3cncc(C)n3)cc2Cl)cc2cnc(NC3CCOCC3)nc21` [Example 7], for which the IC50 on PAK1 [3] was below 50 nM; on PAK2 (PAK65), below 50 nM; on PAK3, 50 to 500 nM; against PAK4 [4], above 5000 nM.

For `CCn1c(=O)c(-c2ccc(-c3nccnc3C)cc2Cl)cc2cnc(NC3CCN(C(C)=O)C3)nc21` (stereo not drawn) [Example 19], the IC50 at PAK1 [3] was 50 to 500 nM; at PAK2 (PAK65) it was 50 to 500 nM; at PAK3, 500 to 5000 nM; on PAK4 [4] it was above 5000 nM.

Usually IC50 stands for the point on the concentration scale where inhibition reaches its midpoint.
